Source: patent US6737383B1, “Herbicidal oxadiazolidines” (priority 1999, dated 2004)

Experiments:
[1] = system: crabgrass; assay: Test B pre/postemergence crabgrass; assay type: in vivo, Digitaria sanguinalis
Method in brief: (§1)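 Response is a visual 0-to-10 score relative to untreated plants, where 0 means no effect and 10 means complete control, taken twelve to sixteen days after application. Treatments went onto soil at planting and onto foliage of 1- to 4-leaf plants, using a surfactant-containing non-phytotoxic solvent.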

[2] = system: bamyardgrass; assay: Test B flood test barnyardgrass; assay type: in vivo, Echinochloa crus-galli
Method in brief: (§2)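 Plants were grown to the 2-leaf stage before treatment with test chemical, then held in a greenhouse for twelve to sixteen days. Injury was visually rated against untreated controls on a 0–10 scale, where 0 is no effect and 10 is complete control.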

[3] = system: giant foxtail; assay: Test B pre/postemergence giant foxtail; assay type: in vivo, Setaria faberii
Method in brief: as §1

[4] = system: corn; assay: Test B pre/postemergence corn; assay type: in vivo, Zea mays
Method in brief: as §1

[5] = system: wild oat; assay: Test B pre/postemergence wild oat; assay type: in vivo, Avena fatua
Method in brief: as §1

[6] = system: smallflower flatsedge; assay: Test B flood test smallflower flatsedge; assay type: in vivo, Cyperus difformis
Method in brief: as §2

[7] = system: cocklebur; assay: Test B pre/postemergence cocklebur; assay type: in vivo, Xanthium strumarium
Method in brief: as §1

[8] = system: sugar beet; assay: Test B pre/postemergence sugar beet; assay type: in vivo, Beta vulgaris
Method in brief: as §1

[9] = system: duck salad; assay: Test B flood test duck salad; assay type: in vivo, Heteranthera limosa
Method in brief: as §2

[10] = system: blackgrass; assay: Test B pre/postemergence blackgrass; assay type: in vivo, Alopecurus myosuroides
Method in brief: as §1

[11] = system: rape; assay: Test B pre/postemergence rape; assay type: in vivo, Brassica napus
Method in brief: as §1

[12] = system: soybean; assay: Test B pre/postemergence soybean; assay type: in vivo, Glycine max
Method in brief: as §1

[13] = system: surinam grass; assay: Test B pre/postemergence surinam grass; assay type: in vivo, Brachiaria decumbens
Method in brief: as §1

[14] = system: pigweed; assay: Test B pre/postemergence pigweed; assay type: in vivo, Amaranthus retroflexus
Method in brief: as §1

[15] = system: bedstraw; assay: Test B pre/postemergence bedstraw; assay type: in vivo, Galium aparine; conditions: Postemergence
Method in brief: as §1

[16] = system: morningglory; assay: Test B pre/postemergence morningglory; assay type: in vivo, Ipomoea hederacea
Method in brief: as §1

[17] = system: velvetleaf; assay: Test B pre/postemergence velvetleaf; assay type: in vivo, Abutilon theophrasti
Method in brief: as §1

[18] = system: wheat; assay: Test B pre/postemergence wheat; assay type: in vivo, Triticum aestivum
Method in brief: as §1

[19] = system: rice; assay: Test B flood test rice; assay type: in vivo, Oryza sativa
Method in brief: as §2

[20] = system: purple nutsedge; assay: Test B pre/postemergence purple nutsedge; assay type: in vivo, Cyperus rotundus
Method in brief: as §1

[21] = Postemergence, Rate 125 g/ha, scale 0 to 10, 0 is no effect, 10 is complete control
[22] = Postemergence, Rate 250 g/ha, scale 0 to 10
[23] = Postemergence, Rate 500 g/ha, scale 0 to 10, 0 is no effect, 10 is complete control
[24] = Preemergence, Rate 62 g/ha, scale of 0 to 10 where 0 is no effect and 10 is complete control
[25] = Preemergence, Rate 125 g/ha, scale 0 to 10, 0 is no effect, 10 is complete control
[26] = Preemergence, Rate 500 g/ha, scale 0 to 10, 0 is no effect, 10 is complete control
[27] = Rate 62 g/ha, Postemergence, scale 0 to 10 (0 no effect, 10 complete control)
[28] = Rate 62 g/ha, flood test species, Pre-emergence, visual evaluation after twelve to sixteen days
[29] = Rate 125 g/ha, under heading Pre-emergence, flood test species, visual evaluation after twelve to sixteen days
[30] = Rate 250 g/ha, Pre-emergence (flood test species), scale 0 to 10, 0 is no effect, 10 is complete control
[31] = Rate 500 g/ha, Pre-emergence section of Table B, 0 to 10 scale (0 no effect, 10 complete control)
[32] = Preemergence, Rate 250 g/ha, scale 0 to 10, 0 is no effect, 10 is complete control

CC(C)N(C(=O)n1oc(=O)n(CC(=O)C2CC2)c1=O)c1ccccc1 [Compound 489]
Crabgrass plant response rating [1, 21]: 5
Crabgrass plant response rating [1, 22]: 8
Plant response rating, Crabgrass [1, 23]: 9
Plant response rating, Crabgrass [1, 24]: 9
Crabgrass plant response rating [1, 25]: 10
Crabgrass plant response rating [1, 26]: 10
Crabgrass plant response rating [1, 27]: 2
Plant response rating, Barnyardgrass (0 to 10 scale, 0 is no effect, 10 is complete control) [2, 28]: 0
Barnyardgrass plant response rating (0 to 10 scale, 0 is no effect, 10 is complete control) [2, 29]: 0
Barnyardgrass plant response rating [2, 30]: 0
Barnyardgrass plant response rating [2, 31]: 0
Giant foxtail plant response rating [3, 21]: 8
Plant response rating, Giant foxtail [3, 23]: 9
Plant response rating, Giant foxtail [3, 24]: 9
Giant foxtail plant response rating [3, 25]: 10
Giant foxtail plant response rating [3, 26]: 10
Giant foxtail plant response rating [3, 27]: 2
Corn plant response rating [4, 21]: 0
Corn plant response rating [4, 22]: 0
Plant response rating, Corn [4, 23]: 4
Plant response rating, Corn [4, 24]: 0
Corn plant response rating [4, 25]: 0
Corn plant response rating [4, 26]: 5
Corn plant response rating [4, 27]: 0
Wild oats plant response rating [5, 21]: 1
Plant response rating, Wild oats [5, 23]: 3
Plant response rating, Wild oats [5, 24]: 0
Wild oats plant response rating [5, 25]: 4
Wild oats plant response rating [5, 26]: 9
Wild oats plant response rating [5, 27]: 0
Plant response rating, S. Flatsedge (0 to 10 scale, 0 is no effect, 10 is complete control) [6, 28]: 0
S. Flatsedge plant response rating (0 to 10 scale, 0 is no effect, 10 is complete control) [6, 29]: 0
S. Flatsedge plant response rating [6, 30]: 0
S. Flatsedge plant response rating [6, 31]: 0
Cocklebur plant response rating [7, 21]: 0
Cocklebur plant response rating [7, 22]: 0
Plant response rating, Cocklebur [7, 23]: 0
Plant response rating, Cocklebur [7, 24]: 0
Cocklebur plant response rating [7, 25]: 0
Cocklebur plant response rating [7, 32]: 0
Cocklebur plant response rating [7, 26]: 0
Cocklebur plant response rating [7, 27]: 0
Sugarbeets plant response rating [8, 21]: 0
Plant response rating, Sugarbeets [8, 23]: 0
Plant response rating, Sugarbeets [8, 24]: 0
Sugarbeets plant response rating [8, 25]: 2
Sugarbeets plant response rating [8, 26]: 5
Sugarbeets plant response rating [8, 27]: 0
Plant response rating, Ducksalad (0 to 10 scale, 0 is no effect, 10 is complete control) [9, 28]: 0
Ducksalad plant response rating (0 to 10 scale, 0 is no effect, 10 is complete control) [9, 29]: 0
Ducksalad plant response rating [9, 30]: 0
Ducksalad plant response rating [9, 31]: 0
Blackgrass plant response rating [10, 21]: 6
Blackgrass plant response rating [10, 22]: 8
Plant response rating, Blackgrass [10, 23]: 8
Plant response rating, Blackgrass [10, 24]: 7
Blackgrass plant response rating [10, 25]: 8
Blackgrass plant response rating [10, 32]: 9
Blackgrass plant response rating [10, 26]: 10
Blackgrass plant response rating [10, 27]: 1
Rape plant response rating [11, 21]: 0
Plant response rating, Rape [11, 23]: 0
Plant response rating, Rape [11, 24]: 0
Rape plant response rating [11, 25]: 0
Rape plant response rating [11, 26]: 9
Rape plant response rating [11, 27]: 0
Soybean plant response rating [12, 21]: 5
Plant response rating, Soybean [12, 23]: 7
Plant response rating, Soybean [12, 24]: 0
Soybean plant response rating [12, 25]: 1
Soybean plant response rating [12, 26]: 3
Soybean plant response rating [12, 27]: 3
B. signalgrass plant response rating [13, 21]: 2
B. signalgrass plant response rating ([13]; Postemergence, Rate 250 g/ha, scale 0 to 10, 0 no effect, 10 complete control): 6
Plant response rating, B. signalgrass [13, 23]: 8
Plant response rating, B. signalgrass [13, 24]: 6
B. signalgrass plant response rating [13, 25]: 7
B. signalgrass plant response rating [13, 32]: 8
B. signalgrass plant response rating [13, 26]: 9
B. signalgrass plant response rating [13, 27]: 1
Redroot pigweed plant response rating [14, 21]: 0
Plant response rating, Redroot pigweed [14, 23]: 2
Plant response rating, Redroot pigweed [14, 24]: 0
Redroot pigweed plant response rating [14, 26]: 10
Redroot pigweed plant response rating [14, 27]: 0
Bedstraw plant response rating ([15]; Rate 125 g/ha, scale 0 to 10, 0 is no effect, 10 is complete control): 3
Bedstraw plant response rating ([15]; Rate 250 g/ha, scale 0 to 10): 5
Bedstraw plant response rating ([15]; Rate 62 g/ha, scale 0 to 10 (0 no effect, 10 complete control)): 0
Morningglory plant response rating [16, 21]: 7
Plant response rating, Morningglory [16, 23]: 10
Plant response rating, Morningglory [16, 24]: 0
Morningglory plant response rating [16, 25]: 0
Morningglory plant response rating [16, 26]: 1
Morningglory plant response rating [16, 27]: 2
Velvetleaf plant response rating [17, 21]: 0
Plant response rating, Velvetleaf [17, 23]: 5
Plant response rating, Velvetleaf [17, 24]: 2
Velvetleaf plant response rating [17, 25]: 2
Velvetleaf plant response rating [17, 26]: 7
Velvetleaf plant response rating [17, 27]: 0
Wheat plant response rating [18, 21]: 0
Plant response rating, Wheat [18, 23]: 2
Plant response rating, Wheat [18, 24]: 0
Wheat plant response rating [18, 25]: 0
Wheat plant response rating [18, 26]: 6
Wheat plant response rating [18, 27]: 0
Plant response rating, Rice (0 to 10 scale, 0 is no effect, 10 is complete control) [19, 28]: 0
Rice plant response rating (0 to 10 scale, 0 is no effect, 10 is complete control) [19, 29]: 0
Rice plant response rating [19, 30]: 0
Rice plant response rating [19, 31]: 0
Nutsedge plant response rating [20, 21]: 0
Plant response rating, Nutsedge [20, 23]: 0
Plant response rating, Nutsedge [20, 24]: 0
Nutsedge plant response rating [20, 25]: 0
Nutsedge plant response rating [20, 26]: 0
Nutsedge plant response rating [20, 27]: 0
